Test results taken from patent publication US5041567A, “Antibacterial monic acid derivatives” (Beecham Group plc, priority 1982, dated 1991).
In brackets after ≈: the same amount, converted by molar mass. Read-outs that look alike come from different tables or passages of the source.

Experiments:
[1] = system: Corynebacterium xerosis 9755; assay: MIC against human bacteria in vitro; format: cell-based
[2] = system: Strep. pyogenes R80/421-A; assay: MIC against human bacteria in vitro; format: cell-based; settings: Streptococcus pyogenes; Strep. pyogenes R80/421-A; 5% chocolated horse blood agar, 18 hours; read-out: MIC
M. dispar NCTC 10125 = assay: MIC against mycoplasma in vitro; format: cell-based; settings: 144 h
Past. multocida PA1 = assay: MIC against veterinary bacteria in vitro; settings: Pasteurella multocida, PA1, 18 h
Description: (§1) The activity of the compounds of the Examples against various veterinarily important bacteria, was assayed in vitro using two-fold serial dilutions in Diagnostic Sensitivity Test Agar inoculated with 10^4 organisms.

M. hyorhinis ATCC 25021 = assay: MIC against mycoplasma in vitro; format: cell-based; settings: Mesomycoplasma hyorhinis, ATCC25021, 144 h
Strep. dysgalactiae SPD1 = assay: MIC against veterinary bacteria in vitro; settings: Streptococcus dysgalactiae, SPD1, 18 h
Description: as §1

[3] = system: Staph. aureus B4 (pen. resistant); assay: MIC against veterinary bacteria in vitro; settings: Staphylococcus aureus, 18 h
Description: as §1

Past. haemolytica PA5 = assay: MIC against veterinary bacteria in vitro; settings: Mannheimia haemolytica, PA5, 18 h
Description: as §1

[4] = system: M. suipneumoniae J2206/183^b; assay: MIC against mycoplasma in vitro; format: cell-based; settings: Mesomycoplasma hyopneumoniae, 144 h
P. mirabilis 889 = assay: MIC against human bacteria in vitro; format: cell-based
M. suipneumoniae LABER = assay: MIC against mycoplasma in vitro; format: cell-based; settings: Mesomycoplasma hyopneumoniae, 144 h
[5] = system: M. suipneumoniae PW/C/210; assay: MIC against mycoplasma in vitro; format: cell-based; settings: Mesomycoplasma hyopneumoniae, 144 h
Strep. uberis SPU1 = assay: MIC against veterinary bacteria in vitro; settings: Streptococcus uberis, SPU1, 18 h
Description: as §1

M. bovis NCTC 10131 = assay: microbe, parasite or virus in culture; format: cell-based; settings: NCTC10131, 144 h
E. coli NCTC 10418 = assay: MIC against human bacteria in vitro; format: cell-based; settings: Escherichia coli
K. aerogenes A = assay: MIC against human bacteria in vitro; format: cell-based; settings: Klebsiella aerogenes
[6] = system: Corynebacterium pyogenes CY1; assay: MIC against veterinary bacteria in vitro; settings: CY1, 18 h
Description: as §1

[7] = system: M. hyosynoviae ATCC 25591; assay: MIC against mycoplasma in vitro; format: cell-based; settings: 144 h
M. suipneumoniae Str. 11 = assay: MIC against mycoplasma in vitro; format: cell-based; settings: Mesomycoplasma hyopneumoniae
[8] = system: Haemophilus influenzae Q1; assay: MIC against human bacteria in vitro; format: cell-based; settings: Haemophilus influenzae, Q1, 18 h
Strep. faecalis I = assay: MIC against human bacteria in vitro; format: cell-based; settings: Enterococcus faecalis
Bacillus subtilis 6633 = assay: MIC against human bacteria in vitro; format: cell-based
[9] = system: Neisseria catarrhalis 1502; assay: MIC against human bacteria in vitro; format: cell-based; settings: Neisseria catarrhalis 1502; 5% chocolated horse blood agar, 18 hours; read-out: MIC
Staph. aureus Oxford = assay: MIC against human bacteria in vitro; format: cell-based; settings: Staphylococcus aureus
B. subtilis ATCC 6633 = assay: MIC against veterinary bacteria in vitro; settings: Bacillus subtilis, ATCC6633, 18 h
Description: as §1

[10] = M. hyorhinis ATCC 25021, 6 days, 37° C., read-out: MIC
[11] = Corynebacterium xerosis 9755, 5% chocolated horse blood agar, 18 hours, read-out: MIC
[12] = Proteus mirabilis, P. mirabilis 889, 5% chocolated horse blood agar, 18 hours, read-out: MIC
[13] = M. suipneumoniae PW/C/210, 6 days, 37° C., read-out: MIC
[14] = NCTC10418, E. coli NCTC 10418, agar with 5% chocolated horse blood, 18 hours, 37° C., read-out: MIC
[15] = K. aerogenes A, 5% chocolated horse blood agar, 18 hours, read-out: MIC
[16] = 144 h, M. suipneumoniae Str. 11, 6 days, 37° C., read-out: MIC
[17] = Strep. faecalis I, 5% chocolated horse blood agar, 18 hours, read-out: MIC
[18] = Bacillus subtilis 6633, 5% chocolated horse blood agar, 18 hours, read-out: MIC
[19] = Staph. aureus Oxford, 5% chocolated horse blood agar, 18 hours, read-out: MIC

Compound	MIC [2] [µg/mL]	MIC (M. dispar NCTC 10125) [µg/mL]	MIC (Past. multocida PA1) [µg/mL]	MIC (M. hyorhinis ATCC 25021; [10]) [µg/mL]	MIC (Strep. dysgalactiae SPD1) [µg/mL]	MIC [3] [µg/mL]	MIC (Past. haemolytica PA5) [µg/mL]	MIC [4] [µg/mL]	MIC (M. suipneumoniae LABER) [µg/mL]	MIC (Strep. uberis SPU1) [µg/mL]	MIC (M. bovis NCTC 10131) [µg/mL]	MIC [6] [µg/mL]	MIC [7] [µg/mL]	MIC [1, 11] [µg/mL]	MIC (P. mirabilis 889; [12]) [µg/mL]	MIC (E. coli NCTC 10418; [14]) [µg/mL]	MIC (K. aerogenes A; [15]) [µg/mL]	MIC (Strep. faecalis I; [17]) [µg/mL]	MIC (Bacillus subtilis 6633; [18]) [µg/mL]	MIC (Staph. aureus Oxford; [19]) [µg/mL]	further results
CSc1ccc(-c2cnc(/C=C(\C)C[C@@H]3OC[C@H](C[C@@H]4O[C@H]4[C@@H](C)[C@H](C)O)[C@@H](O)[C@H]3O)o2)cc1 [Example 9, 5-p-methylthiophenyl-2-(1-normon-2-yl)oxazole A]	10 (≈ 20.4 µM)	0.1 (≈ 0.204 µM)	20 (≈ 40.8 µM)	0.5 (≈ 1.02 µM)	0.625 (≈ 1.28 µM)	1.25 (≈ 2.55 µM)	40 (≈ 81.7 µM)	0.5 (≈ 1.02 µM)	0.5 (≈ 1.02 µM)	0.16 (≈ 0.327 µM)	0.05 (≈ 0.102 µM)	80 (≈ 163 µM)	0.5 (≈ 1.02 µM)								MIC ([1]; Corynebacterium xerosis, 9755, 18 h): > 100 µg/mL; MIC (P. mirabilis 889; Proteus mirabilis, 889, 18 h): > 100 µg/mL; MIC [5]: 0.5 µg/mL (≈ 1.02 µM); MIC (E. coli NCTC 10418; NCTC10418, 18 h): > 100 µg/mL; MIC (K. aerogenes A; 18 h): > 100 µg/mL; MIC (M. suipneumoniae Str. 11; STR.11, 144 h): 0.5 µg/mL (≈ 1.02 µM); MIC [8]: 5 µg/mL (≈ 10.2 µM); MIC (Strep. faecalis I; 18 h): > 100 µg/mL; MIC (Bacillus subtilis 6633; Bacillus subtilis, 6633, 18 h): 1 µg/mL (≈ 2.04 µM); MIC [9]: 10 µg/mL (≈ 20.4 µM); MIC (Staph. aureus Oxford; 18 h): 2.5 µg/mL (≈ 5.11 µM)
C/C(=C\c1ncc(-c2ccc(S(=O)(=O)N(C)C)cc2)o1)C[C@@H]1OC[C@H](C[C@@H]2O[C@H]2[C@@H](C)[C@H](C)O)[C@@H](O)[C@H]1O [Example 24, 5-p-Dimethylaminosulphonylphenyl-2-(1-normon-2-yl)oxazole A]	2 (≈ 3.63 µM)	0.1 (≈ 0.182 µM)	5 (≈ 9.08 µM)		0.625 (≈ 1.13 µM)	1.25 (≈ 2.27 µM)	40 (≈ 72.6 µM)	0.25 (≈ 0.454 µM)		0.312 (≈ 0.567 µM)	0.025 (≈ 0.0454 µM)	80 (≈ 145 µM)	0.25 (≈ 0.454 µM)	> 128	> 64	> 64	> 64	> 128	4 (≈ 7.26 µM)	4 (≈ 7.26 µM)	MIC (B. subtilis ATCC 6633): 0.312 µg/mL (≈ 0.567 µM); MIC (M. hyorhinis ATCC 25021): 0.1 µg/mL (≈ 0.182 µM); MIC [5, 13]: 0.1 µg/mL (≈ 0.182 µM); MIC (M. suipneumoniae Str. 11; [16]): 0.1 µg/mL (≈ 0.182 µM)
C/C(=C\c1ncc(-c2ccc(S(C)(=O)=O)cc2)o1)C[C@@H]1OC[C@H](C[C@@H]2O[C@H]2[C@@H](C)[C@H](C)O)[C@@H](O)[C@H]1O [Example 10]	8 (≈ 15.3 µM)	0.025 (≈ 0.0479 µM)	5 (≈ 9.59 µM)		2.5 (≈ 4.79 µM)	5 (≈ 9.59 µM)	40 (≈ 76.7 µM)	0.05 (≈ 0.0959 µM)	0.025 (≈ 0.0479 µM)	0.625 (≈ 1.2 µM)	0.01 (≈ 0.0192 µM)	> 80	0.05 (≈ 0.0959 µM)	> 128	> 128	> 128	> 128	> 128	2 (≈ 3.83 µM)	8 (≈ 15.3 µM)	MIC (M. hyorhinis ATCC 25021): 0.025 µg/mL (≈ 0.0479 µM); MIC [5]: 0.025 µg/mL (≈ 0.0479 µM); MIC (M. suipneumoniae Str. 11; STR.11, 144 h): 0.025 µg/mL (≈ 0.0479 µM); MIC [8]: 1 µg/mL (≈ 1.92 µM); MIC [9]: 8 µg/mL (≈ 15.3 µM)
C/C(=C\c1ncc(Cc2ccccc2)o1)C[C@@H]1OC[C@H](C[C@@H]2O[C@H]2[C@@H](C)[C@H](C)O)[C@@H](O)[C@H]1O [Example 27, 5-Benzyl-2-(1-normon-2-yl)oxazole A]	4 (≈ 8.74 µM)	2.5 (≈ 5.46 µM)	20 (≈ 43.7 µM)	5 (≈ 10.9 µM)	2.5 (≈ 5.46 µM)	2.5 (≈ 5.46 µM)				1.25 (≈ 2.73 µM)	0.05 (≈ 0.109 µM)	> 80	2.5 (≈ 5.46 µM)	> 64	> 64	> 64	> 64	> 64	4 (≈ 8.74 µM)	8 (≈ 17.5 µM)	MIC (B. subtilis ATCC 6633): 2.5 µg/mL (≈ 5.46 µM); MIC ([4]; M. suipneumoniae J2206/183^b, 6 days, 37° C., read-out: MIC): 10 µg/mL (≈ 21.9 µM); MIC (M. suipneumoniae LABER; M. suipneumoniae LABER, 6 days, 37° C., read-out: MIC): 5 µg/mL (≈ 10.9 µM); MIC [5, 13]: 5 µg/mL (≈ 10.9 µM); MIC (M. suipneumoniae Str. 11; [16]): 5 µg/mL (≈ 10.9 µM)
